Measurements published in ChEMBL document CHEMBL2074184, “Reversal of multidrug resistance in human leukemia K562 by tamolarizine, a novel calcium antagonist” (Jpn J Pharmacol, 2000).

Target: ATP-dependent translocase ABCB1 (Homo sapiens, UniProt P08183)
Assay: TP_TRANSPORTER: increase in Rhodamine 123 intracellular accumulation (R123: 10 uM, Tamolarizine: 10 uM) in K562/DX cellsR cells, FACScan
Type: functional, cell-based
Settings: k562/dxr

Sequence of ATP-dependent translocase ABCB1 (P08183 whole entry): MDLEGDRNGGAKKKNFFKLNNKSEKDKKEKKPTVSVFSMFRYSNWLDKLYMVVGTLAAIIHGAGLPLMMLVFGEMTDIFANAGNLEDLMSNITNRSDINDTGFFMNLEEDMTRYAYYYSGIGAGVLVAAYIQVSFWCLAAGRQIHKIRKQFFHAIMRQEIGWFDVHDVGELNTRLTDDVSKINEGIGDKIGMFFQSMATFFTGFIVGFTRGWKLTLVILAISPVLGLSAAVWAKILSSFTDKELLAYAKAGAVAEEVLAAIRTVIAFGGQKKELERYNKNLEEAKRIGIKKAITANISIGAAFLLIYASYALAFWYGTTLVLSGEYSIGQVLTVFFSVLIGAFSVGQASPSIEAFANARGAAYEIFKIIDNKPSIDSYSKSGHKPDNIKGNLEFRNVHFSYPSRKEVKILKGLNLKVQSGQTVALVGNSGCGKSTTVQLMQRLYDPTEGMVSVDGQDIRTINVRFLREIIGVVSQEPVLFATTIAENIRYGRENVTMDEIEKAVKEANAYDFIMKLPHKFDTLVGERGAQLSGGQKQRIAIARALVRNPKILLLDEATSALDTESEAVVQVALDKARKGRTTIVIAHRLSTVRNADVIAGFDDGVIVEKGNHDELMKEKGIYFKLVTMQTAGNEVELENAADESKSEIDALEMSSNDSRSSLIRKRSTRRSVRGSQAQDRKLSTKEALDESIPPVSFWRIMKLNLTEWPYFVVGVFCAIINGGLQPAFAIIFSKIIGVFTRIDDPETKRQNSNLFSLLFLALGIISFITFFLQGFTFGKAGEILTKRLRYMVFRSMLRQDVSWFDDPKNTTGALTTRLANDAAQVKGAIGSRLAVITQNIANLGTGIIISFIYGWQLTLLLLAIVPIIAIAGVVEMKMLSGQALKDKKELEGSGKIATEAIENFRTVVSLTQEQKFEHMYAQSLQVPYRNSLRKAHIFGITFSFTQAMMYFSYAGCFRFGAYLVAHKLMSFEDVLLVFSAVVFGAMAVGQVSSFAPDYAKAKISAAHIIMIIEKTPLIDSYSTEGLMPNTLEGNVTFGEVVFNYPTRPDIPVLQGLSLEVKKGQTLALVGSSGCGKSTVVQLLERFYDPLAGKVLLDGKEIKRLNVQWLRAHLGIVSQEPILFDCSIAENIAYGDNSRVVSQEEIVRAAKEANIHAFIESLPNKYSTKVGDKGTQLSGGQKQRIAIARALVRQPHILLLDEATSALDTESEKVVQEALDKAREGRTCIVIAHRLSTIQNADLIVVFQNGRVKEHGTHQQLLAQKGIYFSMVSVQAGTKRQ

Activity: inhibitor [+]
Structure (SMILES): COc1ccc(C(O)CN2CCN(C(c3ccccc3)c3ccccc3)CC2)cc1OC (stereo unspecified) [TAMOLARIZINE]
